Data: article PMC9395446, “First-in-human phase 1/1b study to evaluate sitravatinib in patients with advanced solid tumors” (Investigational New Drugs, 2022)

Test: Safety in phase 1/1b study (DLTs, TRAEs, TEAEs; CTCAE v4.03)
Format: in vivo, human
Text: Safety assessments included evaluation of DLTs, AEs, physical examinations, vital sign measurements, electrocardiogram recordings and laboratory tests.
A DLT was defined as a grade ≥ 4 hematologic abnormality lasting ≥ 4 days; grade 3 thrombocytopenia with clinically significant bleeding; febrile neutropenia; clinically significant grade ≥ 3 non-hematologic AEs not related to underlying malignancy; intolerable grade 2 AEs; or toxicity resulting in an inability to deliver 80% of the dose during the first treatment cycle.
The safety population included all patients who received ≥ 1 dose of sitravatinib. […] The PK evaluable population included all patients with sufficient concentration-time data for PK parameter evaluation. The modified intent-to-treat (mITT) population included all phase 1b patients who received ≥ 1 dose of study drug.

[1] = safety population (N = 193), any grade

COCCNCc1ccc(-c2cc3nccc(Oc4ccc(NC(=O)C5(C(=O)Nc6ccc(F)cc6)CC5)cc4F)c3s2)nc1 [sitravatinib, Sitravatinib]
Abdominal pain TRAE, any grade (Phase 1): 0 n (%)
Abdominal pain TRAE, grade ≥3 (Phase 1): 0 n (%)
Anemia TEAE, any grade (Phase 1): 5 (15.6) n (%)
Anemia TEAE, grade ≥3 (Phase 1): 1 (3.1) n (%)
Any TEAE (Phase 1): 31 (96.9) n (%)
Any TRAE (Phase 1): 24 (75.0) n (%)
Asthenia TEAE, any grade (Phase 1): 4 (12.5) n (%)
Asthenia TEAE, grade ≥3 (Phase 1): 0 n (%)
Back pain TEAE, any grade (Phase 1): 8 (25.0) n (%)
Blood and lymphatic system disorders TEAE, any grade (Phase 1): 7 (21.9) n (%)
Blood and lymphatic system disorders TEAE, grade ≥3 (Phase 1): 2 (6.3) n (%)
Blood creatinine increased TEAE, any grade (Phase 1): 3 (9.4) n (%)
Blood creatinine increased TEAE, grade ≥3 (Phase 1): 0 n (%)
Cardiac disorders TEAE, any grade (Phase 1): 3 (9.4) n (%)
Cardiac disorders TEAE, grade ≥3 (Phase 1): 2 (6.3) n (%)
Constipation TEAE, any grade (Phase 1): 5 (15.6) n (%)
Constipation TEAE, grade ≥3 (Phase 1): 0 n (%)
Constipation TRAE, any grade (Phase 1): 2 (6.3) n (%)
Constipation TRAE, grade ≥3 (Phase 1): 0 n (%)
Cough TEAE, any grade (Phase 1): 12 (37.5) n (%)
Cough TEAE, grade ≥3 (Phase 1): 0 n (%)
Decreased appetite TEAE, any grade (Phase 1): 15 (46.9) n (%)
Decreased appetite TEAE, grade ≥3 (Phase 1): 1 (3.1) n (%)
Decreased appetite TRAE, any grade (Phase 1): 7 (21.9) n (%)
Decreased appetite TRAE, grade ≥3 (Phase 1): 0 n (%)
Dehydration TEAE, any grade (Phase 1): 5 (15.6) n (%)
Dehydration TEAE, grade ≥3 (Phase 1): 1 (3.1) n (%)
Diarrhea TEAE, any grade (Phase 1): 13 (40.6) n (%)
Diarrhea TEAE, grade ≥3 (Phase 1): 3 (9.4) n (%)
Diarrhea TRAE, any grade (Phase 1): 8 (25.0) n (%)
Diarrhea TRAE, grade ≥3 (Phase 1): 2 (6.3) n (%)
Dizziness TEAE, any grade (Phase 1): 5 (15.6) n (%)
Dizziness TRAE, any grade (Phase 1): 2 (6.3) n (%)
Dizziness TRAE, grade ≥3 (Phase 1): 0 n (%)
Dry mouth TEAE, any grade (Phase 1): 6 (18.8) n (%)
Dry mouth TEAE, grade ≥3 (Phase 1): 0 n (%)
Dry mouth TRAE, any grade (Phase 1): 4 (12.5) n (%)
Dry mouth TRAE, grade ≥3 (Phase 1): 0 n (%)
Dysphonia TEAE, any grade (Phase 1): 5 (15.6) n (%)
Dysphonia TEAE, grade ≥3 (Phase 1): 0 n (%)
Dysphonia TRAE, any grade (Phase 1): 2 (6.3) n (%)
Dysphonia TRAE, grade ≥3 (Phase 1): 0 n (%)
Dyspnea TEAE, any grade (Phase 1): 7 (21.9) n (%)
Dyspnea TEAE, grade ≥3 (Phase 1): 3 (9.4) n (%)
Edema peripheral TEAE, any grade (Phase 1): 7 (21.9) n (%)
Edema peripheral TEAE, grade ≥3 (Phase 1): 1 (3.1) n (%)
Endocrine disorders TEAE, any grade (Phase 1): 6 (18.8) 6 (18.8) n (%)
Fatigue TEAE, any grade (Phase 1): 17 (53.1) n (%)
Fatigue TEAE, grade ≥3 (Phase 1): 3 (9.4) n (%)
Fatigue TRAE, any grade (Phase 1): 13 (40.6) n (%)
Fatigue TRAE, grade ≥3 (Phase 1): 1 (3.1) n (%)
Gastrointestinal disorders TEAE, any grade (Phase 1): 25 (78.1) n (%)
Gastrointestinal disorders TEAE, grade ≥3 (Phase 1): 4 (12.5) n (%)
General disorders and administration site conditions TEAE, any grade (Phase 1): 21 (65.6) n (%)
General disorders and administration site conditions TEAE, grade ≥3 (Phase 1): 3 (9.4) n (%)
Headache TEAE, any grade (Phase 1): 9 (28.1) n (%)
Hypertension TEAE, any grade (Phase 1): 11 (34.4) n (%)
Hypertension TEAE, grade ≥3 (Phase 1): 6 (18.8) 6 (18.8) n (%)
Hypertension TRAE, any grade (Phase 1): 8 (25.0) n (%)
Hypertension TRAE, grade ≥3 (Phase 1): 5 (15.6) n (%)
Hypokalemia TEAE, any grade (Phase 1): 3 (9.4) n (%)
Hypokalemia TEAE, grade ≥3 (Phase 1): 0 n (%)
Hypomagnesemia TEAE, any grade (Phase 1): 3 (9.4) n (%)
Hypomagnesemia TEAE, grade ≥3 (Phase 1): 0 n (%)
Hyponatremia TEAE, any grade (Phase 1): 3 (9.4) n (%)
Hyponatremia TEAE, grade ≥3 (Phase 1): 3 (9.4) n (%)
Hypophosphatemia TEAE, any grade (Phase 1): 2 (6.3) n (%)
Hypophosphatemia TEAE, grade ≥3 (Phase 1): 1 (3.1) n (%)
Hypothyroidism TEAE, any grade (Phase 1): 6 (18.8) 6 (18.8) n (%)
Hypothyroidism TRAE, any grade (Phase 1): 3 (9.4) n (%)
Hypothyroidism TRAE, grade ≥3 (Phase 1): 0 n (%)
Infections and infestations TEAE, any grade (Phase 1): 16 (50.0) n (%)
Infections and infestations TEAE, grade ≥3 (Phase 1): 5 (15.6) n (%)
Injury, poisoning, procedural complications TEAE, any grade (Phase 1): 4 (12.5) n (%)
Injury, poisoning, procedural complications TEAE, grade ≥3 (Phase 1): 0 n (%)
Investigations TEAE, any grade (Phase 1): 16 (50.0) n (%)
Investigations TEAE, grade ≥3 (Phase 1): 6 (18.8) n (%)
Lipase increased TEAE, any grade (Phase 1): 3 (9.4) n (%)
Lipase increased TEAE, grade ≥3 (Phase 1): 1 (3.1) n (%)
Metabolism and nutrition disorders TEAE, any grade (Phase 1): 21 (65.6) n (%)
Metabolism and nutrition disorders TEAE, grade ≥3 (Phase 1): 4 (12.5) n (%)
Musculoskeletal and connective tissue disorders TEAE, any grade (Phase 1): 19 (59.4) n (%)
Nausea TEAE, any grade (Phase 1): 13 (40.6) n (%)
Nausea TEAE, grade ≥3 (Phase 1): 1 (3.1) n (%)
Nausea TRAE, any grade (Phase 1): 6 (18.8) n (%)
Nausea TRAE, grade ≥3 (Phase 1): 0 n (%)
Neoplasms benign, malignant, unspecified TEAE, any grade (Phase 1): 3 (9.4) n (%)
Neoplasms benign, malignant, unspecified TEAE, grade ≥3 (Phase 1): 3 (9.4) n (%)
Nervous system disorders TEAE, any grade (Phase 1): 14 (43.8) n (%)
PPE syndrome TEAE, any grade (Phase 1): 4 (12.5) n (%)
PPE syndrome TEAE, grade ≥3 (Phase 1): 1 (3.1) n (%)
PPE syndrome TRAE, any grade (Phase 1): 4 (12.5) n (%)
PPE syndrome TRAE, grade ≥3 (Phase 1): 1 (3.1) n (%)
Pain in extremity TEAE, any grade (Phase 1): 2 (6.3) n (%)
Proteinuria TEAE, any grade (Phase 1): 2 (6.3) n (%)
Proteinuria TRAE, any grade (Phase 1): 2 (6.3) n (%)
Proteinuria TRAE, grade ≥3 (Phase 1): 0 n (%)
Psychiatric disorders TEAE, any grade (Phase 1): 7 (21.9) n (%)
Psychiatric disorders TEAE, grade ≥3 (Phase 1): 1 (3.1) n (%)
Rash TEAE, any grade (Phase 1): 5 (15.6) n (%)
Rash TEAE, grade ≥3 (Phase 1): 0 n (%)
Rash TRAE, any grade (Phase 1): 4 (12.5) n (%)
Rash TRAE, grade ≥3 (Phase 1): 0 n (%)
Renal and urinary disorders TEAE, any grade (Phase 1): 9 (28.1) n (%)
Respiratory, thoracic and mediastinal disorders TEAE, any grade (Phase 1): 22 (68.8) n (%)
Respiratory, thoracic and mediastinal disorders TEAE, grade ≥3 (Phase 1): 4 (12.5) n (%)
Serious TEAE (Phase 1): 9 (28.1) n (%)
Serious TRAE (Phase 1): 3 (9.4) n (%)
Skin and subcutaneous tissue disorders TEAE, any grade (Phase 1): 21 (65.6) n (%)
Skin and subcutaneous tissue disorders TEAE, grade ≥3 (Phase 1): 1 (3.1) n (%)
Stomatitis TEAE, any grade (Phase 1): 4 (12.5) n (%)
Stomatitis TEAE, grade ≥3 (Phase 1): 0 n (%)
Stomatitis TRAE, any grade (Phase 1): 3 (9.4) n (%)
Stomatitis TRAE, grade ≥3 (Phase 1): 0 n (%)
TEAE grade ≥3 (Phase 1): 20 (62.5) n (%)
TEAE leading to death (Phase 1): 3 (9.4) n (%)
TEAE leading to discontinuation (Phase 1): 5 (15.6) n (%)
TEAE leading to treatment modification (Phase 1): 13 (40.6) n (%)
TRAE grade ≥3 (Phase 1): 10 (31.3) n (%)
TRAE leading to death (Phase 1): 0 n (%)
TRAE leading to discontinuation (Phase 1): 2 (6.3) n (%)
TRAE leading to treatment modification (Phase 1): 12 (37.5) n (%)
UTI TEAE, any grade (Phase 1): 3 (9.4) n (%)
UTI TEAE, grade ≥3 (Phase 1): 2 (6.3) n (%)
Vascular disorders TEAE, any grade (Phase 1): 13 (40.6) n (%)
Vascular disorders TEAE, grade ≥3 (Phase 1): 6 (18.8) 6 (18.8) n (%)
Vomiting TEAE, any grade (Phase 1): 11 (34.4) n (%)
Vomiting TEAE, grade ≥3 (Phase 1): 1 (3.1) n (%)
Vomiting TRAE, any grade (Phase 1): 6 (18.8) n (%)
Vomiting TRAE, grade ≥3 (Phase 1): 0 n (%)
Weight decreased TEAE, any grade (Phase 1): 4 (12.5) n (%)
Weight decreased TEAE, grade ≥3 (Phase 1): 0 n (%)
Weight decreased TRAE, any grade (Phase 1): 2 (6.3) n (%)
Weight decreased TRAE, grade ≥3 (Phase 1): 0 n (%)
Recommended dose for further exploration (QD, defined in phase 1b due to tolerability): 120 mg
Maximum tolerated dose (MTD) (daily (QD), phase 1 dose escalation, mTPI method): 150 mg
TRAE leading to death (cardiac arrest) (overall population): 0.5%
Patients with DLT (phase 1, 80 mg): one
Patients with DLT (phase 1, 200 mg): three
DLT-evaluable phase 1 patients with a DLT (phase 1, 10–200 mg): 14.3%
DLT-evaluable phase 1 patients with a DLT (n/N) (phase 1, 10–200 mg): 4/28
Each reported DLT (fatigue, mucosal inflammation, peripheral sensory neuropathy, PPE syndrome), share of phase 1 population (phase 1, n = 1 each): 3.6%
Discontinuation due to diarrhea, nausea and fatigue (each) (safety population (N = 193)): 2.1%
Grade ≥ 3 TRAE diarrhea (safety population (N = 193)): 10.4%
Grade ≥ 3 TRAE fatigue (safety population (N = 193)): 7.3%
Grade ≥ 3 TRAE hypertension (safety population (N = 193)): 20.7%
Patients discontinued due to TRAEs (safety population (N = 193)): 13.5%
Patients with any TRAE (safety population (N = 193)): 90.2%
Patients with grade ≥ 3 TRAEs (safety population (N = 193)): 53.4%
TRAEs leading to treatment modification (dose reduction or interruption) (safety population (N = 193)): 62.2%
Treatment modification due to PPE syndrome (safety population (N = 193)): 11.9%
Treatment modification due to diarrhea (safety population (N = 193)): 17.6%
Treatment modification due to fatigue (safety population (N = 193)): 15.0%
Treatment modification due to hypertension (safety population (N = 193)): 15.0%
TRAE diarrhea [1]: 50.8%
TRAE fatigue [1]: 43.0%
TRAE hypertension [1]: 40.4%
TRAE nausea [1]: 30.1%
